Data from patent US12685735B2 (Foghorn Therapeutics Inc., priority 2020, dated 2026).
Read-outs that look alike come from different tables or passages of the source.

Assays:
BRM = BRM (Homo sapiens, UniProt P51531); test: ATPase catalytic activity assay of BRM (ADP-Glo); assay type: biochemical; settings: for IC50: read-out: BRM IC50 (μM)*
Summary of the method: (§1)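 ATPase activity of BRG-1 or BRM was read by ADP-Glo. Residual ATP was depleted (40 min, room temperature), then ADP was converted to ATP (60 min, room temperature) and measured as luciferase luminescence.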

BRG-1 = BRG-1 (Homo sapiens, UniProt P51532); test: ATPase catalytic activity assay of BRG-1 (ADP-Glo); assay type: biochemical; settings: for IC50: read-out: BRG1 IC50 (μM)*
Sequence of BRG-1 (P51532 whole entry): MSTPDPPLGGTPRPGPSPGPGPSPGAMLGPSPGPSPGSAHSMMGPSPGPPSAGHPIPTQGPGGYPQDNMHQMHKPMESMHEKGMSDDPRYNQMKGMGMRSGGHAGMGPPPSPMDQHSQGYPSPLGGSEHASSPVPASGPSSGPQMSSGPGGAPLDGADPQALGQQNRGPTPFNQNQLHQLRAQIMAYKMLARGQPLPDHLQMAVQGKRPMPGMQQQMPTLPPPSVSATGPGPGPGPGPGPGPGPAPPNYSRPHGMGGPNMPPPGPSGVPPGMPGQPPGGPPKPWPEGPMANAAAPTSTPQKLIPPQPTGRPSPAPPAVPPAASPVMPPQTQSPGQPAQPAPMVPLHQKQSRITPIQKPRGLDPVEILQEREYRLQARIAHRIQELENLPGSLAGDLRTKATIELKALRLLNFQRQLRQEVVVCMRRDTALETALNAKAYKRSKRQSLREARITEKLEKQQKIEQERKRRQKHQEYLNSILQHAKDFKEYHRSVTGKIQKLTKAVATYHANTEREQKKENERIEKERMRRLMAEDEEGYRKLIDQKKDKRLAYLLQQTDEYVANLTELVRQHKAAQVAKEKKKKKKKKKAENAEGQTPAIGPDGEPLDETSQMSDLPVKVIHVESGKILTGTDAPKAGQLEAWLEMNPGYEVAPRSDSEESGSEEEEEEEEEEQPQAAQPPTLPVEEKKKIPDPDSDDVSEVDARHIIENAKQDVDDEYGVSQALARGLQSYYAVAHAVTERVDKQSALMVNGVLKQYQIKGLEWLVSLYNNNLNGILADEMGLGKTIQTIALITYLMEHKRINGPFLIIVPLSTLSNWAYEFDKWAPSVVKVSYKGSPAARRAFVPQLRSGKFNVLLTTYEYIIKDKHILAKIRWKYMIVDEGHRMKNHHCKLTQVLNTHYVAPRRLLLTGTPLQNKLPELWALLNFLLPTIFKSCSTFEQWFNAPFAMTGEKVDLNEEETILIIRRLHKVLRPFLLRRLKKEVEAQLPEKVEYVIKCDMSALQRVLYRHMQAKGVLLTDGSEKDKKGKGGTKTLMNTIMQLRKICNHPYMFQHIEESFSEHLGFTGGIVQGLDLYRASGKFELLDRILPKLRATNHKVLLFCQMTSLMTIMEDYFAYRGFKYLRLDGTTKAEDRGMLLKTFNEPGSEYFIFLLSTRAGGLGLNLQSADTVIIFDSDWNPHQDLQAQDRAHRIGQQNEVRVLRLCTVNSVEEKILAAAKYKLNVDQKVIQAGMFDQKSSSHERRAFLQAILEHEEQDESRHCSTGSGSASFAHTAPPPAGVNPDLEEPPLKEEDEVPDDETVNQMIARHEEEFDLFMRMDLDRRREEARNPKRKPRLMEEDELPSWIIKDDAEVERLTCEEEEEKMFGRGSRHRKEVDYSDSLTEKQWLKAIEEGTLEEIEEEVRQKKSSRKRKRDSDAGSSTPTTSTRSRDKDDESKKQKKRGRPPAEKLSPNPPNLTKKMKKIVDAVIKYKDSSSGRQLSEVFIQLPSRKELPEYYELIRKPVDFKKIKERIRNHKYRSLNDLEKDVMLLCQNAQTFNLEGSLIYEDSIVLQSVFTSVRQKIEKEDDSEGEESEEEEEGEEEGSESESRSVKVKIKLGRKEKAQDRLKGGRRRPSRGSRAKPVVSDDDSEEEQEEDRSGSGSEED
Summary of the method: as §1

[1] = ATPase catalytic activity, ADP-Glo
[2] = ATPase catalytic activity, ADP-Glo, read-out: BRG1 Max % Inhibition

Sequence of BRM (P51531 whole entry): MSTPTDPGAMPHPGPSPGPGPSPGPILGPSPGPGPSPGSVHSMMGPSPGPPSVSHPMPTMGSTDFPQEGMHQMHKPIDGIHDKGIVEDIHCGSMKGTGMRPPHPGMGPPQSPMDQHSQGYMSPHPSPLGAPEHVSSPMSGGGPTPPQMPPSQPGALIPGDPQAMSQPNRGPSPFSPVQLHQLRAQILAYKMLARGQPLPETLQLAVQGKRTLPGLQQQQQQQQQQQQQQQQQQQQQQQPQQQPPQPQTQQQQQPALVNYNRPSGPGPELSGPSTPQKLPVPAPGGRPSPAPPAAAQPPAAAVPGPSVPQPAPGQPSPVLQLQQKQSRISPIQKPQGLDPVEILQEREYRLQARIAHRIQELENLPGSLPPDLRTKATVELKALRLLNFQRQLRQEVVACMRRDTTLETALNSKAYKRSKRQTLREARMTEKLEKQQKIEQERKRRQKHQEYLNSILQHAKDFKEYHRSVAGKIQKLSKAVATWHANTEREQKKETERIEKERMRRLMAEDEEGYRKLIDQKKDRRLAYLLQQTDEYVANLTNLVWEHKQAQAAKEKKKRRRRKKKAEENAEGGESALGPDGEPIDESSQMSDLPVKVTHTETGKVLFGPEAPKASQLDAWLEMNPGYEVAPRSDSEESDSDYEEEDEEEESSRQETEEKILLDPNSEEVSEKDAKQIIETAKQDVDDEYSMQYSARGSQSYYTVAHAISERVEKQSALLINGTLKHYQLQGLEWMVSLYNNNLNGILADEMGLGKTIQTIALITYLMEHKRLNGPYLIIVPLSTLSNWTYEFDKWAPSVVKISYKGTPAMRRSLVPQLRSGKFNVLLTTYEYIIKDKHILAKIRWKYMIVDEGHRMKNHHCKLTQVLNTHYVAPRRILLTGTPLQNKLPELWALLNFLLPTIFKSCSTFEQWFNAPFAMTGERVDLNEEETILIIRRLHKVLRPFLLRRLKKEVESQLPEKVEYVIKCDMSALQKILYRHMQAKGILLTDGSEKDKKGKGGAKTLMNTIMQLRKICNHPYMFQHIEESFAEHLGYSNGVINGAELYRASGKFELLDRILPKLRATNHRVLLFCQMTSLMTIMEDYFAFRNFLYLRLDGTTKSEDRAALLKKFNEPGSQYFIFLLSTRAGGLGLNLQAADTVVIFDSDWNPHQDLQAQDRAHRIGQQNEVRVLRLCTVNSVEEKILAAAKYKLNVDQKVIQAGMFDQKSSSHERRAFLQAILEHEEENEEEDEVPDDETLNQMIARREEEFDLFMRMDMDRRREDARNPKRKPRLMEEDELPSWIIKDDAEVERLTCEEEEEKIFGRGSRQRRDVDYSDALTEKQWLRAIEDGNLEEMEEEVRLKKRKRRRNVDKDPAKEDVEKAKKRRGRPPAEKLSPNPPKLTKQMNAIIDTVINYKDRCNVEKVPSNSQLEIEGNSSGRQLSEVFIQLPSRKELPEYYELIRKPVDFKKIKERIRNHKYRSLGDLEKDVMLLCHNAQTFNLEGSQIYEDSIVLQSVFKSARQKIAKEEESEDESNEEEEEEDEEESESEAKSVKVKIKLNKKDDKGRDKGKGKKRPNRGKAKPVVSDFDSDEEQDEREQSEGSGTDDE

C[C@@H]1CN(c2cccc(-c3csc(NC(=O)CNC(=O)c4ccc5c(c4)[C@]4(CCC[C@H]4O)CC5)n3)c2)C[C@H](C)O1 [Compound 256, (1S,2R)-N-(2-((4-(3-((cis)-2,6-dimethylmorpholino)phenyl)thiazol-2-yl)amino)-2-oxoethyl)-2-hydroxy-2′,3′-dihydrospiro[cyclopentane-1,1′-indene]-6′-carboxamide] was tested, and the “BRM Max % Inhibition” value (BRM) was over 60%, the IC50 (BRM) was 1 to 5 µM and the IC50 (BRG-1; [1]) was over 5 µM. It also gave an Emax (BRG-1; [2]) of under 30%.

With Cn1cnc2ccc(-c3csc(NC(=O)CNC(=O)c4ccc5c(c4)[C@@](C)(CO)CC5)n3)cc21 [Compound 257, (S)-3-(hydroxymethyl)-3-methyl-N-(2-((4-(1-methyl-1H-benzo[d]imidazol-6-yl)thiazol-2-yl)amino)-2-oxoethyl)-2,3-dihydro-1H-indene-5-carboxamide] the “BRM Max % Inhibition” value (BRM) was over 70%, the IC50 (BRM) was 1 to 5 µM and the IC50 (BRG-1; [1]) was over 5 µM. For the same molecule, the Emax (BRG-1; [2]) was over 30%.

With CN1CCc2ccc(-c3csc(NC(=O)CNC(=O)c4ccc5c(c4)[C@@](C)(CO)CC5)n3)cc2C1=O [Compound 258, (S)-3-(hydroxymethyl)-3-methyl-N-(2-((4-(2-methyl-1-oxo-1,2,3,4-tetrahydroisoquinolin-7-yl)thiazol-2-yl)amino)-2-oxoethyl)-2,3-dihydro-1H-indene-5-carboxamide] the “BRM Max % Inhibition” value (BRM) was over 80%, the IC50 (BRM) was 0.1 to 1 µM and the “BRG1 Max % Inhibition” value (BRG-1; [1]) was over 60%. For the same molecule, the IC50 (BRG-1; [1]) was 1 to 5 µM.

In the case of C[C@]1(CO)CCc2ccc(C(=O)NCC(=O)Nc3nc(-c4ccn5ccnc5c4)cs3)cc21 [Compound 259, (S)-3-(hydroxymethyl)-N-(2-((4-(imidazo[1,2-a]pyridin-7-yl)thiazol-2-yl)amino)-2-oxoethyl)-3-methyl-2,3-dihydro-1H-indene-5-carboxamide], the “BRM Max % Inhibition” value (BRM) is reported as over 50%, the IC50 (BRM) is reported as 1 to 5 µM and the “BRG1 Max % Inhibition” value (BRG-1; [1]) is reported as under 30%. It also gave an IC50 (BRG-1; [1]) of over 5 µM.

In the case of CN1C(=O)CCc2ccc(-c3csc(NC(=O)CNC(=O)c4ccc5c(c4)[C@@](C)(CO)CC5)n3)cc21 [Compound 260, (S)-3-(hydroxymethyl)-3-methyl-N-(2-((4-(1-methyl-2-oxo-1,2,3,4-tetrahydroquinolin-7-yl)thiazol-2-yl)amino)-2-oxoethyl)-2,3-dihydro-1H-indene-5-carboxamide], the “BRM Max % Inhibition” value (BRM) is reported as over 60%, the IC50 (BRM) is reported as 1 to 5 µM and the IC50 (BRG-1; [1]) is reported as over 5 µM. It also gave an Emax (BRG-1; [2]) of over 30%.

Cn1ncc2ccc(-c3csc(NC(=O)CNC(=O)c4ccc5c(c4)[C@@](C)(CO)CC5)n3)cc21 [Compound 261, (S)-3-(hydroxymethyl)-3-methyl-N-(2-((4-(1-methyl-1H-indazol-6-yl)thiazol-2-yl)amino)-2-oxoethyl)-2,3-dihydro-1H-indene-5-carboxamide] was tested, and the “BRM Max % Inhibition” value (BRM) was over 60%, the IC50 (BRM) was 1 to 5 µM and the IC50 (BRG-1; [1]) was over 5 µM. The Emax (BRG-1; [2]) was over 30%.

C[C@@H]1CN(c2cccc(-c3csc(NC(=O)CNC(=O)c4ccc5c(c4)[C@@](C)(C#N)CC5)n3)n2)C[C@H](C)O1 [Compound 262, (S)-3-cyano-N-(2-((4-(6-((cis)-2,6-dimethylmorpholino)pyridin-2-yl)thiazol-2-yl)amino)-2-oxoethyl)-3-methyl-2,3-dihydro-1H-indene-5-carboxamide] was tested, and the “BRM Max % Inhibition” value (BRM) was over 80%, the IC50 (BRM) was 1 to 5 µM and the IC50 (BRG-1; [1]) was 1 to 5 µM. The Emax (BRG-1; [2]) was over 50%.

For Cc1cnc(O)c(-c2cccc(-c3csc(NC(=O)CNC(=O)c4ccc5c(c4)[C@](C)(CO)CC5)n3)n2)c1 [Compound 263, (R)-N-(2-((4-(2′-hydroxy-5′-methyl-[2,3′-bipyridin]-6-yl)thiazol-2-yl)amino)-2-oxoethyl)-3-(hydroxymethyl)-3-methyl-2,3-dihydro-1H-indene-5-carboxamide], the “BRM Max % Inhibition” value (BRM) was over 80%, the IC50 (BRM) was 0.1 to 1 µM and the IC50 (BRG-1; [1]) was 1 to 5 µM. For the same molecule, the Emax (BRG-1; [2]) was over 40%.

C[C@@]1(CO)CCc2ccc(C(=O)NCC(=O)Nc3nc(-c4cccc(-c5cccnc5O)n4)cs3)cc21 [Compound 264, (R)-N-(2-((4-(2′-hydroxy-[2,3′-bipyridin]-6-yl)thiazol-2-yl)amino)-2-oxoethyl)-3-(hydroxymethyl)-3-methyl-2,3-dihydro-1H-indene-5-carboxamide] was tested, and the “BRM Max % Inhibition” value (BRM) was over 70%, the IC50 (BRM) was 1 to 5 µM and the IC50 (BRG-1; [1]) was over 5 µM. It also gave an Emax (BRG-1; [2]) of under 30%.

For Cn1ccc(-c2cccc(-c3csc(NC(=O)CNC(=O)c4ccc5c(c4)[C@](C)(CO)CC5)n3)n2)n1 [Compound 265, (3R)-3-(hydroxymethyl)-3-methyl-N-[2-[[4-[6-(1-methylpyrazol-3-yl)-2-pyridyl]thiazol-2-yl]amino]-2-oxo-ethyl]indane-5-carboxamide], the “BRM Max % Inhibition” value (BRM) was over 70%, the IC50 (BRM) was 1 to 5 µM and the IC50 (BRG-1; [1]) was over 5 µM. For the same molecule, the Emax (BRG-1; [2]) was over 30%.

In the case of Cc1cc(-c2cccc(-c3csc(NC(=O)CNC(=O)c4ccc5c(c4)[C@@](C)(C#N)CC5)n3)n2)ncn1 [Compound 266, (3S)-3-cyano-3-methyl-N-[2-[[4-[6-(6-methylpyrimidin-4-yl)-2-pyridyl]thiazol-2-yl]amino]-2-oxo-ethyl]indane-5-carboxamide], the “BRM Max % Inhibition” value (BRM) is reported as over 60%, the IC50 (BRM) is reported as 1 to 5 µM and the IC50 (BRG-1; [1]) is reported as over 5 µM. The Emax (BRG-1; [2]) was over 30%.

For Cc1cc(-c2cccc(-c3csc(NC(=O)CNC(=O)c4ccc5c(c4)[C@](C)(C#N)CC5)n3)n2)ncn1 [Compound 267, (3R)-3-cyano-3-methyl-N-[2-[[4-[6-(6-methylpyrimidin-4-yl)-2-pyridyl]thiazol-2-yl]amino]-2-oxo-ethyl]indane-5-carboxamide], the “BRM Max % Inhibition” value (BRM) was over 95%, the IC50 (BRM) was under 0.1 µM and the IC50 (BRG-1; [1]) was under 0.1 µM. It also gave an Emax (BRG-1; [2]) of over 95%.

In the case of Cc1nccc(-c2cccc(-c3csc(NC(=O)CNC(=O)c4ccc5c(c4)[C@@](C)(C#N)CC5)n3)n2)n1 [Compound 268, (3S)-3-cyano-3-methyl-N-[2-[[4-[6-(2-methylpyrimidin-4-yl)-2-pyridyl]thiazol-2-yl]amino]-2-oxo-ethyl]indane-5-carboxamide], the “BRM Max % Inhibition” value (BRM) is reported as over 80%, the IC50 (BRM) is reported as 0.1 to 1 µM and the IC50 (BRG-1; [1]) is reported as 1 to 5 µM. The Emax (BRG-1; [2]) was over 50%.

With COc1cccc(-c2csc(NC(=O)CNC(=O)c3cc(F)c4c(c3)[C@@](C)(C#N)COC4)n2)c1 [Compound 269, (S)-4-cyano-8-fluoro-N-(2-((4-(3-methoxyphenyl)thiazol-2-yl)amino)-2-oxoethyl)-4-methylisochromane-6-carboxamide] the “BRM Max % Inhibition” value (BRM) was over 90%, the IC50 (BRM) was 0.1 to 1 µM and the IC50 (BRG-1; [1]) was over 5 µM. It also gave an Emax (BRG-1; [2]) of over 90%.

In the case of COc1cccc(-c2csc(NC(=O)CNC(=O)c3cc(F)c4c(c3)[C@](C)(C#N)COC4)n2)c1 [Compound 270, (R)-4-cyano-8-fluoro-N-(2-((4-(3-methoxyphenyl)thiazol-2-yl)amino)-2-oxoethyl)-4-methylisochromane-6-carboxamide], the “BRM Max % Inhibition” value (BRM) is reported as over 95%, the IC50 (BRM) is reported as under 0.1 µM and the IC50 (BRG-1; [1]) is reported as 0.1 to 1 µM. For the same molecule, the Emax (BRG-1; [2]) was over 95%.

In the case of CC1OCCc2cc(C(=O)NCC(=O)Nc3nc(-c4cccc(N5C[C@@H](C)O[C@@H](C)C5)n4)cs3)ccc21 (stereo partly drawn) [Compound 271, N-(2-((4-(6-((cis)-2,6-dimethylmorpholino)pyridin-2-yl)thiazol-2-yl)amino)-2-oxoethyl)-1-methylisochromane-6-carboxamide], the “BRM Max % Inhibition” value (BRM) is reported as over 85%, the IC50 (BRM) is reported as 0.1 to 1 µM and the IC50 (BRG-1; [1]) is reported as 1 to 5 µM. The Emax (BRG-1; [2]) was over 85%.

With C[C@@H]1CN(c2cccc(-c3csc(NC(=O)CNC(=O)c4ccc5c(c4)[C@](F)(C(F)F)CCO5)n3)c2)C[C@H](C)O1 [Compound 274, (S)-4-(difluoromethyl)-N-(2-((4-(3-((cis)-2,6-dimethylmorpholino)phenyl)thiazol-2-yl)amino)-2-oxoethyl)-4-fluorochromane-6-carboxamide] the “BRM Max % Inhibition” value (BRM) was over 95%, the IC50 (BRM) was under 0.1 µM and the IC50 (BRG-1; [1]) was under 0.1 µM. It also gave an Emax (BRG-1; [2]) of over 95%.

With C[C@@H]1CN(c2cccc(-c3csc(NC(=O)CNC(=O)c4ccc5c(c4)[C@@](F)(C(F)F)CCO5)n3)c2)C[C@H](C)O1 [Compound 275, (R)-4-(difluoromethyl)-N-(2-((4-(3-((cis)-2,6-dimethylmorpholino)phenyl)thiazol-2-yl)amino)-2-oxoethyl)-4-fluorochromane-6-carboxamide] the “BRM Max % Inhibition” value (BRM) was over 95%, the IC50 (BRM) was under 0.1 µM and the IC50 (BRG-1; [1]) was 0.1 to 1 µM. For the same molecule, the Emax (BRG-1; [2]) was over 95%.

O=C(CNC(=O)c1ccc2c(c1)[C@](F)(C(F)F)COC2)Nc1nc(-c2cc(F)cc(N3CCC3)c2)cs1 [Compound 276, (R)-N-(2-((4-(3-(azetidin-1-yl)-5-fluorophenyl)thiazol-2-yl)amino)-2-oxoethyl)-4-(difluoromethyl)-4-fluoroisochromane-6-carboxamide] was tested, and the “BRM Max % Inhibition” value (BRM) was over 95%, the IC50 (BRM) was under 0.1 µM and the IC50 (BRG-1; [1]) was under 0.1 µM. It also gave an Emax (BRG-1; [2]) of over 95%.

For O=C(CNC(=O)c1ccc2c(c1)[C@@](F)(C(F)F)COC2)Nc1nc(-c2cc(F)cc(N3CCC3)c2)cs1 [Compound 277, (S)-N-(2-((4-(3-(azetidin-1-yl)-5-fluorophenyl)thiazol-2-yl)amino)-2-oxoethyl)-4-(difluoromethyl)-4-fluoroisochromane-6-carboxamide], the “BRM Max % Inhibition” value (BRM) was over 95%, the IC50 (BRM) was under 0.1 µM and the IC50 (BRG-1; [1]) was under 0.1 µM. The Emax (BRG-1; [2]) was over 95%.

COc1cccc(-c2csc(NC(=O)CNC(=O)c3ccc4c(c3)[C@@](C)(F)CCOC4)n2)c1 [Compound 278, (S)-5-fluoro-N-(2-((4-(3-methoxyphenyl)thiazol-2-yl)amino)-2-oxoethyl)-5-methyl-1,3,4,5-tetrahydrobenzo[c]oxepine-7-carboxamide] was tested, and the “BRM Max % Inhibition” value (BRM) was over 90%, the IC50 (BRM) was 0.1 to 1 µM and the IC50 (BRG-1; [1]) was over 5 µM. For the same molecule, the Emax (BRG-1; read-out: BRG1 Max % Inhibition, ATPase catalytic activity, ADP-Glo) was over 90%.

For COc1cccc(-c2csc(NC(=O)CNC(=O)c3ccc4c(c3)[C@](C)(F)CCOC4)n2)c1 [Compound 279, (R)-5-fluoro-N-(2-((4-(3-methoxyphenyl)thiazol-2-yl)amino)-2-oxoethyl)-5-methyl-1,3,4,5-tetrahydrobenzo[c]oxepine-7-carboxamide], the “BRM Max % Inhibition” value (BRM) was over 90%, the IC50 (BRM) was 0.1 to 1 µM and the IC50 (BRG-1; [1]) was 0.1 to 1 µM. The Emax (BRG-1; [2]) was over 90%.
